Laboratory results taken from the supplement of paper PMC5908809.

Columns and labels:
[1] = system: KAI3 (IL-2 2.5 ng/mL); test: percent inhibition of viability; higher = more inhibition; settings: 72 h
[2] = system: normal primary NK cells, pool 1 (3 donors), resting (IL-2 0 ng/mL); test: as above; settings: 72 h
[3] = system: SNK-6 (IL-2 2.5 ng/mL); test: as above; settings: 72 h
[4] = system: IMC-1 (IL-2 20 ng/mL); test: as above; settings: 72 h
[5] = system: NK-YS (IL-2 2.5 ng/mL); test: as above; settings: 72 h
[6] = system: NKL (IL-2 2.5 ng/mL); test: as above; settings: 72 h
[7] = system: NK-92 (IL-2 2.5 ng/mL); test: as above; settings: 72 h
[8] = system: normal primary NK cells, pool 3 (3 donors) (IL-2 2.5 ng/mL); test: as above; settings: 72 h
[9] = system: YT (IL-2 2.5 ng/mL); test: as above; settings: 72 h
[10] = system: normal primary NK cells, pool 1 (3 donors) (IL-2 2.5 ng/mL); test: as above; settings: 72 h
[11] = system: DERL-7 (IL-2 2.5 ng/mL); test: as above; settings: 72 h
[12] = system: KHYG-1 (IL-2 2.5 ng/mL); test: as above; settings: 72 h
[13] = system: normal primary NK cells, pool 2 (3 donors) (IL-2 2.5 ng/mL); test: as above; settings: 72 h
[14] = system: normal NK cells expanded with K562-aAPC; test: as above; settings: 72 h, IL-2 2.5 ng/mL
Procedure: (§1)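 Drug sensitivity and resistance testing on K562-aAPC-expanded normal NK cells: 5 concentrations (10-fold steps over a 10,000-fold range), 72 h at 37 °C, viability by CellTiter-Glo normalised to DMSO and benzethonium chloride controls; DSS from the fitted curve.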

[15] = system: KAI3 (IL-2 2.5 ng/mL); test: drug sensitivity score (DSS) (DSS units); higher = more sensitive; extreme values may be limits of the assay; settings: 72 h
[16] = system: normal primary NK cells, pool 1 (3 donors), resting (IL-2 0 ng/mL); test: as above; settings: 72 h
[17] = system: SNK-6 (IL-2 2.5 ng/mL); test: as above; settings: 72 h
[18] = system: IMC-1 (IL-2 20 ng/mL); test: as above; settings: 72 h
[19] = system: NK-YS (IL-2 2.5 ng/mL); test: as above; settings: 72 h
[20] = system: NKL (IL-2 2.5 ng/mL); test: as above; settings: 72 h
[21] = system: NK-92 (IL-2 2.5 ng/mL); test: as above; settings: 72 h
[22] = system: normal primary NK cells, pool 3 (3 donors) (IL-2 2.5 ng/mL); test: as above; settings: 72 h
[23] = system: YT (IL-2 2.5 ng/mL); test: as above; settings: 72 h
[24] = system: normal primary NK cells, pool 1 (3 donors) (IL-2 2.5 ng/mL); test: as above; settings: 72 h
[25] = system: DERL-7 (IL-2 2.5 ng/mL); test: as above; settings: 72 h
[26] = system: KHYG-1 (IL-2 2.5 ng/mL); test: as above; settings: 72 h
[27] = system: normal primary NK cells, pool 2 (3 donors) (IL-2 2.5 ng/mL); test: as above; settings: 72 h
[28] = system: normal NK cells expanded with K562-aAPC; test: as above; settings: 72 h; IL-2 2.5 ng/mL
Procedure: as §1

COc1cccc2cc(-c3nc([C@H]4CC[C@H](C(=O)O)CC4)n4ncnc(N)c34)[nH]c12 [OSI-027] (max concentration tested 10000 nM)
percent inhibition of viability [%]
Settings | 1 nM | 10 nM | 100 nM | 1000 nM | 10000 nM
[1] | -2.08 | 0.41 | 9.85 | 34.9 | 65.5
[2] | -7.98 | 3.28 | -0.52 | 18.1 | 13
[3] | 4.93 | 11.4 | 9.18 | 31.7 | 55.4
[4] | -0.57 | -5.79 | -6.31 | -24.6 | 15.6
[5] | -5.3 | -6.22 | 3.24 | 12.3 | 67.8
[6] | -11.8 | -3.21 | 15.2 | 49.5 | 66
[7] | 2.75 | 14.2 | 11.7 | 37.3 | 67
[8] | -5.61 | 1.81 | 2.65 | 24.4 | 23.8
[9] | 2.96 | 3.52 | 7.55 | 26.5 | 62.3
[10] | -9.22 | 7.53 | -13.9 | 16.4 | 24.5
[11] | 7.51 | -0.27 | 4.62 | 33.3 | 81.3
[12] | -1.84 | -0.78 | 4.77 | 18.4 | 68.1
[13] | -8.05 | -2.56 | 3.22 | 27.2 | 24.8
[14] | -6.22 | -5.68 | 3.76 | 21.5 | 48.2

Settings | drug sensitivity score
[15] | 7.92
[16] | 2.18
[17] | 7.2
[18] | 0.09
[19] | 5.77
[20] | 10.9
[21] | 8.91
[22] | 4.17
[23] | 6.33
[24] | 2.65
[25] | 8.48
[26] | 6.5
[27] | 4.93
[28] | 4.91

Nc1ccccc1NC(=O)c1ccc(CNC(=O)OCc2cccnc2)cc1 [Entinostat] (max concentration tested 10000 nM)
percent inhibition of viability [%]
Settings | 1 nM | 10 nM | 100 nM | 1000 nM | 10000 nM
[1] | -0.78 | 3.8 | 18.4 | 66.9 | 94
[2] | -8 | -8.09 | 10.2 | 61.1 | 92.3
[3] | 9.17 | 8.55 | 15.6 | 65 | 95.2
[4] | 2.59 | 0.46 | 1.95 | 10.1 | 99.8
[5] | -7.17 | -13.1 | -7.95 | 20.5 | 95.3
[6] | -7.74 | -3.03 | 2.66 | 77.8 | 94
[7] | -11.3 | -2.61 | 7.67 | 73.5 | 96.4
[8] | -13.6 | -2.26 | -9.76 | 3.4 | 97.7
[9] | 0.9 | -0.08 | 4.17 | 7.95 | 93.3
[10] | -1.3 | 1.71 | 4.63 | 34.1 | 97.6
[11] | 0.45 | 2.75 | -7.22 | 24.5 | 99.7
[12] | -9.03 | -10.2 | -4.46 | 50.8 | 95.8
[13] | -6.42 | -3.08 | -10.5 | 24.5 | 95.8
[14] | -3.4 | 0.57 | -3.46 | 17.8 | 99.5

Settings | drug sensitivity score
[15] | 14.8
[16] | 13
[17] | 14.4
[18] | 7.18
[19] | 8.53
[20] | 14.6
[21] | 14.8
[22] | 5.88
[23] | 6.43
[24] | 9.83
[25] | 9.28
[26] | 11.5
[27] | 9.03
[28] | 8.42

COCC(=O)NC/C=C/c1ccc2ncnc(Nc3ccc(Oc4ccc(C)nc4)c(C)c3)c2c1 (max concentration tested 10000 nM)
percent inhibition of viability [%]
Settings | 1 nM | 10 nM | 100 nM | 1000 nM | 10000 nM
[1] | 16.4 | 7.76 | 7.06 | 11.1 | 64.8
[2] | 14.9 | 9.42 | 15.7 | 21.2 | 61
[3] | -0.22 | -18.4 | -12.7 | -1.13 | 63.7
[4] | -0.96 | -1.82 | -0.25 | 1.87 | 55.9
[5] | -0.22 | 0.49 | 1.46 | 4.98 | 25.6
[6] | 1.03 | -1.8 | 0.69 | 8.06 | 58.8
[7] | 1.59 | 8.37 | 6.53 | 22.8 | 75
[8] | -5.66 | 4.44 | 4.87 | 10.9 | 5.97
[9] | 3.6 | -0.32 | 0.57 | 9.46 | 48.2
[10] | -12 | -6.34 | -1.36 | -3.88 | 14.2
[11] | -3.08 | -0.4 | -4.63 | 9.9 | 33
[12] | -2.05 | -5.21 | -2.56 | -1.27 | 29.4
[13] | 1.3 | 6.76 | -0.67 | 11.9 | 23.1
[14] | -7.95 | -1.69 | -8 | -3.66 | 3.1

Settings | drug sensitivity score
[15] | 5.41
[16] | 6.9
[17] | 3.37
[18] | 3.25
[19] | 1.75
[20] | 4.55
[21] | 7.15
[22] | 0.05
[23] | 4.08
[24] | 0.09
[25] | 2.95
[26] | 1.16
[27] | 2.13
[28] | 0

Nc1cc(C(F)(F)F)c(-c2cc(N3CCOCC3)nc(N3CCOCC3)n2)cn1 [Buparlisib] (max concentration tested 10000 nM)
percent inhibition of viability [%]
Settings | 1 nM | 10 nM | 100 nM | 1000 nM | 10000 nM
[1] | -7.19 | -5.48 | -0.56 | 43 | 74.8
[2] | 6.15 | -7.57 | -1.1 | 2.62 | 26.9
[3] | 33.1 | 31.2 | 38.8 | 73.2 | 92.7
[4] | -4.05 | -1.36 | 2.62 | -18.8 | 99.3
[5] | -0.4 | -0.39 | 9.67 | 55 | 80
[6] | -8.01 | -1.84 | 8.57 | 69.1 | 73.8
[7] | 7.02 | -3.67 | 15.7 | 52.4 | 96.2
[8] | -11.4 | -7.58 | 0 | 0.01 | 19.4
[9] | -0.5 | 0.16 | 7.95 | 41.5 | 100
[10] | -1.97 | -13.5 | -2.5 | 4.32 | 28.6
[11] | -4.02 | 6.38 | 3.7 | 42.2 | 89.9
[12] | -1.22 | -0.26 | 7 | 57.9 | 101
[13] | -19.2 | -7.45 | 6.25 | 8.14 | 26.6
[14] | -3.33 | -1.98 | 1.34 | 25.6 | 67

Settings | drug sensitivity score
[15] | 9.35
[16] | 1.48
[17] | 23.7
[18] | 4.51
[19] | 11.7
[20] | 14
[21] | 12.2
[22] | 0.55
[23] | 10.4
[24] | 1.89
[25] | 9.98
[26] | 12.6
[27] | 1.72
[28] | 7.15

Nc1nc(Cl)nc2c1ncn2[C@H]1C[C@H](O)[C@@H](CO)O1 [Cladribine] (max concentration tested 1000 nM)
percent inhibition of viability [%]
Settings | 0.1 nM | 1 nM | 10 nM | 100 nM | 1000 nM
[1] | -17.3 | -11.1 | -4.18 | 61.5 | 92.2
[2] | -18.2 | -14.8 | 62 | 90.2 | 90
[3] | 11.6 | 5.52 | 8.41 | 66.9 | 91.5
[4] | -1.93 | -4.54 | -8.55 | 59.4 | 99.9
[5] | -8.76 | -10.6 | -9.2 | 7.65 | 88.2
[6] | -13.2 | -8.81 | -9.87 | 104 | 98.6
[7] | -7.06 | -4.86 | 2.88 | 92.3 | 97.7
[8] | -12.6 | -10.5 | 18.2 | 87.7 | 97
[9] | -4 | -5.35 | -6.95 | 5.62 | 56.9
[10] | -5.25 | -7.26 | 23.2 | 93.1 | 96.5
[11] | -4.72 | -1.74 | 2.44 | 83.3 | 100
[12] | -2.1 | -6.64 | 0.12 | 102 | 99.4
[13] | -13.2 | -12.7 | 24.4 | 90.6 | 93.7
[14] | -1.61 | -1.55 | 30.3 | 100 | 100

Settings | drug sensitivity score
[15] | 12.2
[16] | 23.5
[17] | 13.8
[18] | 12.5
[19] | 6.1
[20] | 17.6
[21] | 17.1
[22] | 18.4
[23] | 3.98
[24] | 20.3
[25] | 15.4
[26] | 18.2
[27] | 20.3
[28] | 22.4
